# Assays:
# [1] = target: Sodium-dependent serotonin transporter (Homo sapiens, UniProt P31645); assay: Binding affinity to SERT (unknown origin)
# Histamine H1 receptor = Histamine H1 receptor (Homo sapiens, UniProt P35367); assay: Binding affinity to H1 receptor (unknown origin)
# D(2) dopamine receptor = D(2) dopamine receptor (Homo sapiens, UniProt P14416); assay: Binding affinity to D2 receptor (unknown origin)
# [2] = target: 5-hydroxytryptamine receptor 6 (Homo sapiens, UniProt P50406); assay: Binding affinity to 5HT6 receptor (unknown origin)
# [3] = target: 5-hydroxytryptamine receptor 7 (Homo sapiens, UniProt P34969); assay: Binding affinity to 5HT7 receptor (unknown origin)
# [4] = target: T1, 5-hydroxytryptamine receptor 1A (Homo sapiens, UniProt P08908); assay: Binding affinity to 5HT1A receptor (unknown origin)
# T1 sequence (P08908 whole entry): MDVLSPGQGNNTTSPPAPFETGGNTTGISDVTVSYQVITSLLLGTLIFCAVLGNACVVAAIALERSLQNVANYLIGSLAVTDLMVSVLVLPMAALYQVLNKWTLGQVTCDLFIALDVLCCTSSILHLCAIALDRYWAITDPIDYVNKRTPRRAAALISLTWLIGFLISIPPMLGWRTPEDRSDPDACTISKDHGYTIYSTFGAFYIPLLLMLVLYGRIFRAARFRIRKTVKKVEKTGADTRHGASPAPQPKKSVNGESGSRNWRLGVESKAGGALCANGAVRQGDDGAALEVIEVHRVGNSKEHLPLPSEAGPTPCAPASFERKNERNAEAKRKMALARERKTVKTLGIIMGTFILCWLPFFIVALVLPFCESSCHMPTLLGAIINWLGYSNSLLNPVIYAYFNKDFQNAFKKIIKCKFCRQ
# [5] = target: 5-hydroxytryptamine receptor 2A (Homo sapiens, UniProt P28223); assay: Binding affinity to 5HT2A receptor (unknown origin)
# 5-hydroxytryptamine receptor 2A, sequence (P28223 whole entry): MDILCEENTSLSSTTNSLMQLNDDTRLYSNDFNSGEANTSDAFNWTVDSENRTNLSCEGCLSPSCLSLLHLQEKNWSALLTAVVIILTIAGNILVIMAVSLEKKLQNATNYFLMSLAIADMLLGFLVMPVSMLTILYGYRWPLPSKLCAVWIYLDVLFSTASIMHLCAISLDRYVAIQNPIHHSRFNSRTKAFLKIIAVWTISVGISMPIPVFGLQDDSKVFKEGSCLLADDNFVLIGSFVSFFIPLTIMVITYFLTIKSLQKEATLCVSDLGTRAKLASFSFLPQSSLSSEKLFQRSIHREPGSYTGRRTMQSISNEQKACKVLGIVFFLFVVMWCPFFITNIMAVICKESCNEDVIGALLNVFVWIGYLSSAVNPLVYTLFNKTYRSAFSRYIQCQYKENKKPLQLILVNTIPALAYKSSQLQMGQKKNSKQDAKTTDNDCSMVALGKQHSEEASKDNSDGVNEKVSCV
# 5-hydroxytryptamine receptor 6, sequence (P50406 whole entry): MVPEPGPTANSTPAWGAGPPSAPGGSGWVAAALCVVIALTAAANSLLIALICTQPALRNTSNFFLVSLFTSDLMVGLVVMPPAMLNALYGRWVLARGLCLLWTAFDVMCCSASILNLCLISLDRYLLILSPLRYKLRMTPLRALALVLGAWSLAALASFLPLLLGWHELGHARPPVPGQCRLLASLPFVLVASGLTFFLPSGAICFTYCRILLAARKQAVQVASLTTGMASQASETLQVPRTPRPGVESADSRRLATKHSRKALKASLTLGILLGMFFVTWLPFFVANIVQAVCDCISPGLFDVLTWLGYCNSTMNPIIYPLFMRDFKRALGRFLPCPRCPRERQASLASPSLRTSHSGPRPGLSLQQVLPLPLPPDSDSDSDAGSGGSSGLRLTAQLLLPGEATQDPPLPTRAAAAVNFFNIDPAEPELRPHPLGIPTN
# Histamine H1 receptor, sequence (P35367 whole entry): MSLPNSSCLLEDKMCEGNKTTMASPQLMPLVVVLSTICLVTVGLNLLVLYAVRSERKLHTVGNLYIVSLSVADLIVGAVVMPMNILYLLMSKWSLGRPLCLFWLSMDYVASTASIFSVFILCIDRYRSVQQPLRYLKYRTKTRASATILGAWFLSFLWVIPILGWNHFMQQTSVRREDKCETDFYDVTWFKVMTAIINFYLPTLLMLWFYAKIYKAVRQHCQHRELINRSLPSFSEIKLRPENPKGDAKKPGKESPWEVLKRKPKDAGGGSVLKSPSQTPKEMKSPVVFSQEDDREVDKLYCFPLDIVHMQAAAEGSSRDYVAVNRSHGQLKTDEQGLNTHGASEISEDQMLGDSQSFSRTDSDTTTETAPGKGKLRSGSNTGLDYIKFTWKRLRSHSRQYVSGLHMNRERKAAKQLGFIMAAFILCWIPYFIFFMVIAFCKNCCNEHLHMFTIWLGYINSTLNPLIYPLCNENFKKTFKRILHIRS
# 5-hydroxytryptamine receptor 7, sequence (P34969 whole entry): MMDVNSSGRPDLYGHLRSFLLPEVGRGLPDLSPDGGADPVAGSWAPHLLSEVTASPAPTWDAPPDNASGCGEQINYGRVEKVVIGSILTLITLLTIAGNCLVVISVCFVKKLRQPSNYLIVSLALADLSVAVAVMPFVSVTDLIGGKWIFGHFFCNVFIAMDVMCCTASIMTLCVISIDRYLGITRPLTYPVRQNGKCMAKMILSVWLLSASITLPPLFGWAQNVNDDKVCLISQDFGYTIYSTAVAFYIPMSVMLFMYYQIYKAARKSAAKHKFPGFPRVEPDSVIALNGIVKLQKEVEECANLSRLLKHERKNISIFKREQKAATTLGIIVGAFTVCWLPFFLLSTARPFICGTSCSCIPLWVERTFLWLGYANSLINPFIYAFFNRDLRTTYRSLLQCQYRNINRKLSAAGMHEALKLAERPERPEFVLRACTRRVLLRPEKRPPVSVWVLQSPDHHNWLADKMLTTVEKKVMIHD
# Sodium-dependent serotonin transporter, sequence (P31645 whole entry): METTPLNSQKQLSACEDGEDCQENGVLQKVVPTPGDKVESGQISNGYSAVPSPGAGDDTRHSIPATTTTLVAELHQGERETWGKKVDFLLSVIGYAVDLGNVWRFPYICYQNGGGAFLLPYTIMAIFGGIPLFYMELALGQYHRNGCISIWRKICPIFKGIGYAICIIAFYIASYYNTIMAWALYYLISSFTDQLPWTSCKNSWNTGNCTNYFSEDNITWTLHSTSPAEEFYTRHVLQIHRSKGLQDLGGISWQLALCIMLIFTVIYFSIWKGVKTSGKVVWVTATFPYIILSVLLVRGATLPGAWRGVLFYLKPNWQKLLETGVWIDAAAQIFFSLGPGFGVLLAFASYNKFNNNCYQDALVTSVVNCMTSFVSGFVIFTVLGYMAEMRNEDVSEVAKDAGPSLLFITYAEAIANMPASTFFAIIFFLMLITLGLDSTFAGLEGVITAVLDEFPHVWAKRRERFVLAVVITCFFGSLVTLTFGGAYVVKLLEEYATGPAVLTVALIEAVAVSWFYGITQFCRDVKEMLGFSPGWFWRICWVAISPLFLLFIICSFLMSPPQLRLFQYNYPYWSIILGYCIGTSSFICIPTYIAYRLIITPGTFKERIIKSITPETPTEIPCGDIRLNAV
# D(2) dopamine receptor, sequence (P14416 whole entry): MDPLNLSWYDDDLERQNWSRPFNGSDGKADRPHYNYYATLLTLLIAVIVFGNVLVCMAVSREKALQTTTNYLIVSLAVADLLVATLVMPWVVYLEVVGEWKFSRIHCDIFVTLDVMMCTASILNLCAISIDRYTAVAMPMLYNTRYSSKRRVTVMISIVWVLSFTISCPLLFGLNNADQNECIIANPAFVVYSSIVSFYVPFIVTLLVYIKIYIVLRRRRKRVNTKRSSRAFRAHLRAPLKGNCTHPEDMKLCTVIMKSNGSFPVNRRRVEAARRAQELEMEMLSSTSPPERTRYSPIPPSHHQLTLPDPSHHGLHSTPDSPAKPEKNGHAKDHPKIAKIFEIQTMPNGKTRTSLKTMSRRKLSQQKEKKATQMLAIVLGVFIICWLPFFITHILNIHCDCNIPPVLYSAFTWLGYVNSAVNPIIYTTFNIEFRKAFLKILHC
Compound,Ki ([1]; read-out: Ki) [µM],Ki (Histamine H1 receptor; read-out: Ki) [µM],Ki (D(2) dopamine receptor) [µM],Ki [2] [µM],Ki [3] [µM],Ki [4] [µM],Ki [5] [µM],Ki [1],Ki (Histamine H1 receptor)
COc1cc2c(cc1OC)N(CCN(C)C)C(=O)c1ccccc1N(C)C2=O,> 100,> 10,,,,,,,
CN(C)CCN1C(=O)c2ccccc2N(C)C(=O)c2ccccc21,,> 10,65.3,40.4,> 100,> 100,> 100,Not Active,
CN(C)CCCN1C(=O)c2ccccc2CCc2ccccc21,> 100,0.81,,,,,,,
CN(C)CCCN1C(=O)c2ccccc2C(=O)N(Cc2ccccc2)c2ccccc21,> 100,,,,,,,,Not Active
COc1cc2c(cc1OC)N(CCCN(C)C)C(=O)c1ccccc1N(C)C2=O,,,,,,,,Not Active,Not Active
O=C1c2ccccc2/C=C\c2ccccc2N1CCCN1CCOCC1,> 100,,19.1,75.3,> 100,39.4,> 100,,Not Active
CN(C)CCCN1C(=O)c2cc(Cl)ccc2N(C)C(=O)c2cc3ccccc3cc21,,,,,,,,Not Active,Not Active
CN1CCN(CCCN2C(=O)c3ccccc3/C=C\c3ccccc32)CC1,,> 5,7.5,21.1,> 100,87.7,48.3,Not Active,

# Second part, the molecule after the results:
Ki ([1]; read-out: Ki) [µM],Ki (Histamine H1 receptor; read-out: Ki) [µM],Ki (D(2) dopamine receptor) [µM],Ki [2] [µM],Ki [3] [µM],Ki [4] [µM],Ki [5] [µM],Ki [1],Ki (Histamine H1 receptor),Compound
12.4,0.29,,,,,,,,CN(C)CCN1C(=O)c2ccccc2CCc2ccccc21
4.6,0.12,11.6,20.1,85.2,77.2,74.4,,,CN(C)CCN1C(=O)c2ccccc2/C=C\c2ccccc21
,,,,,,,Not Active,Not Active,CN(C)CCN1C(=O)c2ccccc2C(=O)N(Cc2ccccc2)c2ccccc21
,> 5,,,,,,Not Active,,CN(C)CCN1C(=O)c2cc(Cl)ccc2N(C)C(=O)c2cc3ccccc3cc21
36.9,0.43,9,23.4,> 100,41.6,17.1,,,CN(C)CCCN1C(=O)c2ccccc2/C=C\c2ccccc21
,> 10,,,,,,Not Active,,CN(C)CCCN1C(=O)c2ccccc2N(C)C(=O)c2ccccc21
10.9,0.02,30.2,3.3,12.3,2.5,7.2,,,CN(C)CCN1C(=O)c2ccccc2N(C)c2ccccc21 [DIBENZEPIN]

# Reference: ChEMBL document CHEMBL4665756, “Synthesis, crystal structure and biological activity of novel analogues of tricyclic drugs” (Bioorg Med Chem Lett, 2020)
